# What was measured:
# Test in all cases: biochemical
# [1] = biological target: T1, EeAChE (AChE from Electrophorus electricus) (Electrophorus electricus, UniProt O42275); type: biochemical; conditions: modified Ellman's method, 37 °C, samples 1 to 100 µM, average ± standard deviation of three experiments
# T1 construct: purchased Sigma-Aldrich (São Paulo, Brazil)
# Protocol: (§1) In order to determine the anticholinesterase activity, we used Ellman’s method modified for a 96-wells plate. The velocities of substrate hydrolysis by AChE and BChE as function of sample concentration were evaluated for EeAChE and EqBChE. AChE, BChE and Ellman’s reagent (DTNB) were prepared in phosphate buffer (100 mM, pH 7.4). Acetylthiocholine iodide (ATCI), and butyrylthiocholine iodide (BTCI) were prepared in distilled water. Stock samples (100 mM) were prepared in dimethyl sulphoxide (DMSO) and appropriately diluted in distilled water to the desired concentrations immediately before use. All solutions were kept on ice during the experiment. All experiments were performed at 37 ± 1 °C.
# (§2) The mixture was incubated for 10 min. Then, ATCI (0.5 mM) or BTCI (1.0 mM) was added to all wells and the plate was read immediately for 5 min in a spectrophotometer (Spectramax 340PC, Molecular Device®). The spontaneous and sample (100 µM) induced hydrolysis of the substrate were evaluated by replacing enzyme for buffer. […] The solvent (DMSO) was evaluated at the highest concentration (0.2%) used in the experiment. All concentrations refer to final concentrations. The samples were tested in at least 5 concentrations. […] The values of absorbance/min were calculated by the software Softmax Pro 6.4®. Inhibition values were calculated through non-linear regression with the software GraphPadPrism 5 (GraphPad software®, San Diego, CA, USA). […] EeAChE (EC.3.1.1.7), EqBChE (EC3.1.1.8), ATCI, BTCI and DTNB were purchased from Sigma-Aldrich (São Paulo, Brazil).
# [2] = biological target: T2, EqBChE (butyrylcholinesterase from equine serum) (Equus caballus, UniProt P81908); type: biochemical; conditions: modified Ellman's method, 37 °C, samples 1 to 100 µM, average ± standard deviation of three experiments
# T2 construct: butyrylcholinesterase from equine serum (EqBChE); purchased Sigma-Aldrich (São Paulo, Brazil); host or cells: equine serum
# Protocol: as §1, §2
# [3] = biological target: T3, EeAChE (Electrophorus electricus, UniProt O42275); conditions: EeAChE 33 nM, ACh 5 mM, final concentration of the inhibitor 10 mM, 25 °C, triplicate; read-out: AChE inhibition (NMR test)
# T3 construct: purchased Sigma-Aldrich (São Paulo, Brazil)
# T3 sequence (O42275 24-633): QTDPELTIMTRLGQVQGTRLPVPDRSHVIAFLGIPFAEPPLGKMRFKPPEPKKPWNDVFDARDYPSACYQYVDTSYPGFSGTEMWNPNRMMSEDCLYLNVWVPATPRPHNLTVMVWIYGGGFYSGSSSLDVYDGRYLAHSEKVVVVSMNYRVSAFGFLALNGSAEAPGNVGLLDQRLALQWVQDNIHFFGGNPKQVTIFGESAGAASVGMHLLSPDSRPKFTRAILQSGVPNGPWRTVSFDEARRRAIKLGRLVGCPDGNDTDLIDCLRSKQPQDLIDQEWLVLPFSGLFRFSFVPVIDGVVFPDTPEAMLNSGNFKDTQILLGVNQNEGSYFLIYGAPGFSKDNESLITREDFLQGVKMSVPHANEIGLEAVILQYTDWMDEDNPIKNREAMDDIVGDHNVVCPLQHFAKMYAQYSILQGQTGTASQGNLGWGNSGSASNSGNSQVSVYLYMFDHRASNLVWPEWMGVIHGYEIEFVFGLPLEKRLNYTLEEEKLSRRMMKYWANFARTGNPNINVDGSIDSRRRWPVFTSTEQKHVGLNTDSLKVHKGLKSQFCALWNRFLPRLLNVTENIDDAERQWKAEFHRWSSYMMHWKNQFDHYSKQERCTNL
# Protocol: This sample was immediately inserted in the magnet for locking and shimming, allowing for the observation of the first ^1H spectra exactly 5 min after the addition of ACh. The next ^1H spectra were acquired at every 5 min with a single scan over 75 min. For testing the new compound, the same procedure was performed, including the addition of 5 μL of the potential EeAChE inhibitor (final concentration of the inhibitor in the NMR tube = 10 mM) before the addition of ACh. […] The values generated from the integration of the signals of ACh (consumed during the reaction) and Ac (produced during the reaction) are compared between each other and to the values of Ac produced in the presence and in the absence of the inhibitor. This enables the calculation of the percentages of inhibition, as described before [32]. All analyses were performed in triplicate.
# T1 sequence (O42275 24-633): as above
# T2 sequence (P81908 whole entry): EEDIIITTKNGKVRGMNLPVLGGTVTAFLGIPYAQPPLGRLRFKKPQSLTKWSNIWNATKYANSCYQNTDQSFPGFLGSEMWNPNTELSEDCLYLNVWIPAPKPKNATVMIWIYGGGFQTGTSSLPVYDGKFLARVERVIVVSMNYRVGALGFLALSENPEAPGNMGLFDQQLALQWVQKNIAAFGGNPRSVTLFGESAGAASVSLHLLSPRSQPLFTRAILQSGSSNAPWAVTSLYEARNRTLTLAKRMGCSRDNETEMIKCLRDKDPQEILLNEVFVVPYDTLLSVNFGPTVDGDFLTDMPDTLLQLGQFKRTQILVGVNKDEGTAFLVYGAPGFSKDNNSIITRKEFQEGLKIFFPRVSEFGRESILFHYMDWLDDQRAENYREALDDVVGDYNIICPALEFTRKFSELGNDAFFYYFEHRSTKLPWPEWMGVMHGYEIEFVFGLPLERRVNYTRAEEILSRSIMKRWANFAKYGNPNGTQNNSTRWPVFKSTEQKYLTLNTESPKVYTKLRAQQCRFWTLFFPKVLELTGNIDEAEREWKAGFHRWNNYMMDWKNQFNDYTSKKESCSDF
structure (smiles),measurement,setting,value
"CC1(C)CC(=O)c2cc3cc4c(cc3nc2C1)OCO4 [Compound 3, 7,8-Dihydro-7,7-dimethyl-1,3-dioxolo[4,5-b]acridin-9(6h)-one]",IC50,[1],51.5 ± 2.47 µM
"COC(=O)c1cc2cc3c(cc2nc1C)OCO3 [Compound 4, Methyl 6-Methyl-[1,3]dioxolo[4,5-g]quinone-7-carboxilate]",IC50 EqBChE,[2],not able to inhibit
same,IC50,[1],> 100 µM
same,IC50 EeAChE,[1],not able to inhibit
"O=C(O)c1cc2cc3c(cc2[nH]c1=O)OCO3 [Compound 5, Acid 5,6-Diidro-6-oxo-1,3-dioxolo[4,6g] quiniline-7-carboxilic]",IC50,[1],14.2 ± 1.15 µM
"O=c1[nH]c(=O)c2cc3cc4c(cc3nc2[nH]1)OCO4 [Compound 6, 1,3-Dioxolo [4,5-g] pirimido [4,5-b] quinoline-7,9 (6H,8H)-dione]",IC50,[1],32.1 ± 3.53 µM
"CCOC(=O)c1cc2cc3c(cc2[nH]c1=O)OCO3 [Compound 7, Ethyl 5,6-Dehidro-6-oxo-[1,3] dioxolano [4,5-g] quinoline-7-carboxilate]",IC50,[1],62.8 ± 2.02 µM
"CC1(C)CC(=NNC(=N)N)c2cc3cc4c(cc3nc2C1)OCO4 [Compound 8, Guanylhydrazone of 7,7-Dimethyl-7,8-dihydro-[1,3]dioxolo[4,5-b]acridin-9(6h)-one]",IC50,[2],15.2 ± 0.75 µM
same,IC50,[1],8.5 ± 0.39 µM
same,inhibition at 10000 µM,[3],73.9 ± 6.26%

# Reference: PMC6720848, “Synthesis of New Quinoline-Piperonal Hybrids as Potential Drugs against Alzheimer’s Disease” (International Journal of Molecular Sciences, 2019)
